Test results: patent US6017934A, “Thrombin inhibitors” (Merck & Co., Inc., priority 1998, dated 2000)
pKi: −log10 of the molar value. Residues, ends and D or L forms follow the SMILES beside them.

What was measured:
Format in all cases: biochemical
human a-thrombin [1] = target: T1, human a-thrombin (Homo sapiens, UniProt P00734); experiment: In vitro thrombin inhibition (Ki); conditions: 25° C., 0.05 M TRIS pH 7.4, 0.15 M NaCl, 0.1% PEG; read-out: trombin Ki
Protocol: (§1) Assays of human a-thrombin and human trypsin were performed at 25° C. in 0.05 M TRIS buffer pH 7.4, 0.15 M NaCl, 0.1% PEG. Trypsin assays also contained 1 mM CaCl2.
(§2) Concentrations of stock solutions of Z-GPR-afc were determined from measurements of absorbance at 380 nm of the 7-amino-4-trifluoromethyl coumarin produced upon complete hydrolysis of an aliquot of the stock solution by thrombin.
Times required to achieve equilibration between enzyme and inhibitor were determined in control experiments. Initial velocities of product formation in the absence (Vo) or presence of inhibitor (Vi) were measured. Assuming competitive inhibition, and that unity is negligible compared Km /[S], […] (where [S], [I], and e respectively represent the total concentrations, of substrate, inhibitor and enzyme), the equilibrium constant (Ki) for dissociation of the inhibitor from the enzyme can be obtained from the dependence of Vo /Vi on [I] shown in equation 1.

human a-thrombin [2] = target: T1, human a-thrombin; experiment: Thrombin catalyzed hydrolysis of fluorogenic substrate; conditions: 500 nm (excitation 400 nm)
Protocol: as §1, §2

human trypsin = experiment: Rate of hydrolysis of p-nitroanilide substrate by trypsin; conditions: 405 nm, 1 mM CaCl2
Protocol: as §1

Row | pKi (human a-thrombin [1]) | Structure (SMILES) | further results
1 | > 8.00 | Cc1cc(Sc2ccccc2)c(N)c(=O)n1CC(=O)NCc1cc(Cl)ccc1OCC(=O)NC1CC1 | –
2 | < 8.00 | Cc1nc(N)ccc1CNC(=O)Cn1c(C)cc(Sc2ccccc2)c(NS(C)(=O)=O)c1=O | –
3 | – | N=C(N)NCCC[C@H](NC(=O)[C@@H]1CCCN1C(=O)CNC(=O)OCc1ccccc1)C(=O)Nc1ccc2c(C(F)(F)F)cc(=O)oc2c1 [Z-GPR-afc, Cbz-Gly-Pro-Arg-7-amino-4-trifluoromethylcoumarin] (HELM PEPTIDE1{[O=C(OCc1ccccc1)[*:2]].G.P.R.[O=c1cc(C(F)(F)F)c2ccc(N[*:1])cc2o1]}$$$$V2.0) | Km (human a-thrombin [2]): 27 µM
4 | – | CNCC(=O)N1CCC[C@H]1C(=O)N[C@@H](CCCNC(=N)N)C(=O)Nc1ccc([N+](=O)[O-])cc1 [sar-PR-pna, sarcosine-Pro-Arg-p-nitroanilide] (HELM PEPTIDE1{[Sar].P.R.[O=[N+]([O-])c1ccc(N[*:1])cc1]}$$$$V2.0) | Km (human trypsin): 59 µM
